Experimental data reported in patent publication US9006250B2, “4-amino-6-(heterocyclic)picolinates and 6-amino-2-(heterocyclic)pyrimidine-4-carboxylates and their use as herbicides” (Dow AgroSciences, LLC, priority 2013, dated 2015).

What was measured:
[1] = test system: ECHCG: barnyardgrass (Echinochloa crus-galli); test: Post-Emergent Test II herbicidal activity; format: in vivo; conditions: post-emergence, 336 h, 14 days, read-out: Visual Growth Reduction (%) 14 Days After Application ECHCG; for pest or weed control at 35 g/ha: 35 g ai/ha; for pest or weed control at 70 g/ha: 70 g ai/ha; for pest or weed control at 140 g/ha: 140 g ai/ha
Procedure: (§1) Post-Emergent Test II: Seeds or nutlets of the desired test plant species were planted in Sun Gro Metro-Mix® 360 planting mixture, which typically has a pH of 6.0 to 6.8 and an organic matter content of about 30 percent, in plastic pots with a surface area of 64 square centimeters. When required to ensure good germination and healthy plants, a fungicide treatment and/or other chemical or physical treatment was applied. The plants were grown for 7-21 d in a greenhouse with an approximate 15 h photoperiod which was maintained at about 23-29° C. during the day and 22-28° C. during the night. Nutrients and water were added on a regular basis and supplemental lighting was provided with overhead metal halide 1000-Watt lamps as necessary. The plants were employed for testing when they reached the first or second true leaf stage.
(§2) A weighed amount, determined by the highest rate to be tested, of each test compound was placed in a 25 mL glass vial and was dissolved in 4 mL of a 97:3 v/v mixture of acetone and DMSO to obtain concentrated stock solutions. […] The concentrated stock solutions obtained were diluted with 20 mL of an aqueous mixture containing acetone, water, isopropyl alcohol, DMSO, Atplus 411F crop oil concentrate, and Triton® X-155 surfactant in a 48.5:39:10:1.5:1.0:0.02 v/v ratio to obtain spray solutions containing the highest application rates. Additional application rates were obtained by serial dilution of 12 mL of the high rate solution into a solution containing 2 mL of 97:3 v/v mixture of acetone and DMSO and 10 mL of an aqueous mixture containing acetone, water, isopropyl alcohol, DMSO, Atplus 411F crop oil concentrate, and Triton X®-155 surfactant in a 48.5:39:10:1.5:1.0:0.02 v/v ratio to obtain ½×, ¼×, ⅛× and 1/16× rates of the high rate. Compound requirements are based upon a 12 mL application volume at a rate of 187 liters per hectare (L/ha). Formulated compounds were applied to the plant material with an overhead Mandel track sprayer equipped with 8002E nozzles calibrated to deliver 187 L/ha over an application area of 0.503 square meters at a spray height of 18 inches […] above the average plant canopy height. Control plants were sprayed in the same manner with the solvent blank.
(§3) The treated plants and control plants were placed in a greenhouse as described above and watered by subirrigation to prevent wash-off of the test compounds. After 14 d, the condition of the test plants as compared with that of the untreated plants was determined visually and scored on a scale of 0 to 100 percent where 0 corresponds to no injury and 100 corresponds to complete kill.

[2] = test system: EPHHL: wild poinsettia (Euphorbia heterophylla); test: Post-Emergent Test II herbicidal activity; format: in vivo; conditions: post-emergence, 336 h, 14 days, read-out: Visual Growth Reduction (%) 14 Days After Application EPHHL; for pest or weed control at 35 g/ha: 35 g ai/ha; for pest or weed control at 70 g/ha: 70 g ai/ha; for pest or weed control at 140 g/ha: 140 g ai/ha
Procedure: as §1, §2, §3

[3] = test system: AMARE: redroot pigweed (Amaranthus retroflexus); test: Post-Emergent Test II herbicidal activity; format: in vivo; conditions: post-emergence, 336 h, 14 days, read-out: Visual Growth Reduction (%) 14 Days After Application AMARE; for pest or weed control at 35 g/ha: 35 g ai/ha; for pest or weed control at 70 g/ha: 70 g ai/ha; for pest or weed control at 140 g/ha: 140 g ai/ha
Procedure: as §1, §2, §3

[4] = test system: ABUTH: velvetleaf (Abutilon theophrasti); test: Post-Emergent Test II herbicidal activity; format: in vivo; conditions: post-emergence, 336 h, 14 days, read-out: Visual Growth Reduction (%) 14 Days After Application ABUTH; for pest or weed control at 35 g/ha: 35 g ai/ha; for pest or weed control at 70 g/ha: 70 g ai/ha; for pest or weed control at 140 g/ha: 140 g ai/ha
Procedure: as §1, §2, §3

[5] = test system: CHEAL: lambsquarters (Chenopodium album); test: Post-Emergent Test II herbicidal activity; format: in vivo; conditions: post-emergence, 336 h, 14 days, read-out: Visual Growth Reduction (%) 14 Days After Application CHEAL; for pest or weed control at 35 g/ha: 35 g ai/ha; for pest or weed control at 70 g/ha: 70 g ai/ha; for pest or weed control at 140 g/ha: 140 g ai/ha
Procedure: as §1, §2, §3

[6] = test system: SETFA: giant foxtail (Setaria faberi); test: Post-Emergent Test II herbicidal activity; format: in vivo; conditions: post-emergence, 336 h, 14 days, read-out: Visual Growth Reduction (%) 14 Days After Application SETFA; for pest or weed control at 35 g/ha: 35 g ai/ha; for pest or weed control at 70 g/ha: 70 g ai/ha; for pest or weed control at 140 g/ha: 140 g ai/ha
Procedure: as §1, §2, §3

[7] = test system: HELAN: sunflower (Helianthus annuus); test: Post-Emergent Test II herbicidal activity; format: in vivo; conditions: post-emergence, 336 h, 14 days, read-out: Visual Growth Reduction (%) 14 Days After Application HELAN; for pest or weed control at 35 g/ha: 35 g ai/ha; for pest or weed control at 70 g/ha: 70 g ai/ha; for pest or weed control at 140 g/ha: 140 g ai/ha
Procedure: as §1, §2, §3

[8] = test system: BRSNN: oilseed rape, canola (Brassica napus); test: Post-Emergent Test II herbicidal activity; format: in vivo; conditions: post-emergence, 336 h, 14 days, read-out: Visual Growth Reduction (%) 14 Days After Application BRSNN; for pest or weed control at 35 g/ha: 35 g ai/ha; for pest or weed control at 70 g/ha: 70 g ai/ha; for pest or weed control at 140 g/ha: 140 g ai/ha
Procedure: as §1, §2, §3

[9] = test system: CYPES: yellow nutsedge (Cyperus esculentus); test: Post-Emergent Test II herbicidal activity; format: in vivo; conditions: post-emergence, 336 h, 14 days, read-out: Visual Growth Reduction (%) 14 Days After Application CYPES; for pest or weed control at 35 g/ha: 35 g ai/ha; for pest or weed control at 70 g/ha: 70 g ai/ha; for pest or weed control at 140 g/ha: 140 g ai/ha
Procedure: as §1, §2, §3

[10] = test system: ORYSA: rice (Oryza sativa); test: Post-Emergent Test II herbicidal activity; format: in vivo; conditions: post-emergence, 336 h, 14 days, read-out: Visual Growth Reduction (%) 14 Days After Application ORYSA; for pest or weed control at 35 g/ha: 35 g ai/ha; for pest or weed control at 70 g/ha: 70 g ai/ha; for pest or weed control at 140 g/ha: 140 g ai/ha
Procedure: as §1, §2, §3

[11] = test system: TRZAS: wheat, spring (Triticum aestivum); test: Post-Emergent Test II herbicidal activity; format: in vivo; conditions: post-emergence, 336 h, 14 days, read-out: Visual Growth Reduction (%) 14 Days After Application TRZAS; for pest or weed control at 35 g/ha: 35 g ai/ha; for pest or weed control at 70 g/ha: 70 g ai/ha; for pest or weed control at 140 g/ha: 140 g ai/ha
Procedure: as §1, §2, §3

melting point [°C] | Structure (SMILES) | pest or weed control at 35 g/ha [1] [%] | pest or weed control at 70 g/ha [1] [%] | pest or weed control at 140 g/ha [1] [%] | pest or weed control at 35 g/ha [2] [%] | pest or weed control at 70 g/ha [2] [%] | pest or weed control at 140 g/ha [2] [%] | pest or weed control at 35 g/ha [3] [%] | pest or weed control at 70 g/ha [3] [%] | pest or weed control at 140 g/ha [3] [%] | pest or weed control at 35 g/ha [4] [%] | pest or weed control at 70 g/ha [4] [%] | pest or weed control at 140 g/ha [4] [%] | pest or weed control at 35 g/ha [5] [%] | pest or weed control at 70 g/ha [5] [%] | pest or weed control at 140 g/ha [5] [%] | pest or weed control at 35 g/ha [6] [%] | pest or weed control at 70 g/ha [6] [%] | pest or weed control at 140 g/ha [6] [%] | pest or weed control at 35 g/ha [7] [%] | also measured
142 to 144 | COC(=O)c1nc(-c2ccc3nonc3c2OC)cc(N)c1Cl [Compound 9, Methyl 4-amino-3-chloro-6-(4-methoxybenzo[c][1,2,5]oxadiazol-5-yl)picolinate] | 0 to 29 | 0 to 29 | 0 to 29 | 0 to 29 | 0 to 29 | 0 to 29 | 45 to 59 | 60 to 74 | 60 to 74 | 0 to 29 | 0 to 29 | 0 to 29 | 60 to 74 | 60 to 74 | 75 to 84 | 0 to 29 | 0 to 29 | 0 to 29 | 0 to 29 | pest or weed control at 70 g/ha [7]: 0 to 29%; pest or weed control at 140 g/ha [7]: 0 to 29%; pest or weed control at 35 g/ha [8]: 0 to 29%; pest or weed control at 70 g/ha [8]: 0 to 29%; pest or weed control at 140 g/ha [8]: 0 to 29%; pest or weed control at 35 g/ha [9]: 0 to 29%; pest or weed control at 70 g/ha [9]: 0 to 29%; pest or weed control at 140 g/ha [9]: 0 to 29%; pest or weed control at 35 g/ha [10]: 0 to 29%; pest or weed control at 70 g/ha [10]: 0 to 29%; pest or weed control at 140 g/ha [10]: 0 to 29%; pest or weed control at 35 g/ha [11]: 0 to 29%; pest or weed control at 70 g/ha [11]: 0 to 29%; pest or weed control at 140 g/ha [11]: 0 to 29%
157 to 160 | COC(=O)c1nc(-c2cccc3nonc23)cc(N)c1Cl [Compound 16] | 0 to 29 | 0 to 29 | 0 to 29 | 0 to 29 | 0 to 29 | 0 to 29 | 85 to 94 | 95 to 100 | 95 to 100 | 0 to 29 | 0 to 29 | 0 to 29 | 60 to 74 | 75 to 84 | 85 to 94 | 0 to 29 | 0 to 29 | 0 to 29 | 0 to 29 | pest or weed control at 70 g/ha [7]: 30 to 44%; pest or weed control at 140 g/ha [7]: 60 to 74%; pest or weed control at 35 g/ha [8]: 30 to 44%; pest or weed control at 70 g/ha [8]: 45 to 59%; pest or weed control at 140 g/ha [8]: 60 to 74%; pest or weed control at 35 g/ha [9]: 0 to 29%; pest or weed control at 70 g/ha [9]: 0 to 29%; pest or weed control at 140 g/ha [9]: 0 to 29%; pest or weed control at 35 g/ha [10]: 0 to 29%; pest or weed control at 70 g/ha [10]: 0 to 29%; pest or weed control at 140 g/ha [10]: 0 to 29%; pest or weed control at 35 g/ha [11]: 0 to 29%; pest or weed control at 70 g/ha [11]: 0 to 29%; pest or weed control at 140 g/ha [11]: 0 to 29%
